{"source": "patent US20260262643A1", "about": "“HERBICIDAL BENZOXAZINES” (FMC CORPORATION, priority 2022, published 2026)", "key": {"barnyardgrass [1]": {"test_system": "barnyardgrass", "assay": "Test C preemergence", "type": "in vivo, Echinochloa crusgalli", "in_short": "(§1)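 Greenhouse herbicide screen, 10-day duration. Test chemicals in solvent/surfactant blend were sprayed onto soil at sowing (pre) or onto 2–10 cm seedlings at one to two leaves (post); injury scored visually against controls, 0 no effect to 100 complete control.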"}, "blackgrass [2]": {"test_system": "blackgrass", "assay": "Test C preemergence", "type": "in vivo, Alopecurus myosuroides", "in_short": "as §1"}, "corn [3]": {"test_system": "corn", "assay": "Test C preemergence", "type": "in vivo, Zea mays", "in_short": "as §1"}, "foxtail, giant [4]": {"test_system": "foxtail, giant", "assay": "Test C preemergence", "type": "in vivo, Setaria faberi", "in_short": "as §1"}, "kochia [5]": {"test_system": "kochia", "assay": "Test C preemergence", "type": "in vivo, Bassia scoparia", "in_short": "as §1"}, "oat, wild [6]": {"test_system": "oat, wild", "assay": "Test C preemergence", "type": "in vivo, Avena fatua", "in_short": "as §1"}, "pigweed, palmer [7]": {"test_system": "pigweed, palmer", "assay": "Test C preemergence", "type": "in vivo, Amaranthus palmeri", "in_short": "as §1"}, "ragweed [8]": {"test_system": "ragweed", "assay": "Test C preemergence", "type": "in vivo, Ambrosia artemisiifolia", "in_short": "as §1"}, "ryegrass, Italian [9]": {"test_system": "ryegrass, Italian", "assay": "Test C preemergence", "type": "in vivo, Lolium multiflorum", "in_short": "as §1"}, "soybean [10]": {"test_system": "soybean", "assay": "Test C preemergence", "type": "in vivo, Glycine max", "in_short": "as §1"}, "wheat [11]": {"test_system": "wheat", "assay": "Test C preemergence", "type": "in vivo, Triticum aestivum", "in_short": "as §1"}, "barnyardgrass [12]": {"test_system": "barnyardgrass", "assay": "Test C postemergence", "type": "in vivo, Echinochloa crusgalli", "settings": "10 days, 0 to 100 scale (0 no effect, 100 complete control)", "in_short": "as §1"}, "blackgrass [13]": {"test_system": "blackgrass", "assay": "Test C postemergence", "type": "in vivo, Alopecurus myosuroides", "settings": "10 days, 0 to 100 scale (0 no effect, 100 complete control)", "in_short": "as §1"}, "corn [14]": {"test_system": "corn", "assay": "Test C postemergence", "type": "in vivo, Zea mays", "settings": "10 days, 0 to 100 scale (0 no effect, 100 complete control)", "in_short": "as §1"}, "foxtail, giant [15]": {"test_system": "foxtail, giant", "assay": "Test C postemergence", "type": "in vivo, Setaria faberi", "settings": "10 days, 0 to 100 scale (0 no effect, 100 complete control)", "in_short": "as §1"}, "kochia [16]": {"test_system": "kochia", "assay": "Test C postemergence", "type": "in vivo, Bassia scoparia", "settings": "10 days, 0 to 100 scale (0 no effect, 100 complete control)", "in_short": "as §1"}, "oat, wild [17]": {"test_system": "oat, wild", "assay": "Test C postemergence", "type": "in vivo, Avena fatua", "settings": "10 days, 0 to 100 scale (0 no effect, 100 complete control)", "in_short": "as §1"}, "pigweed, palmer [18]": {"test_system": "pigweed, palmer", "assay": "Test C postemergence", "type": "in vivo, Amaranthus palmeri", "settings": "10 days, 0 to 100 scale (0 no effect, 100 complete control)", "in_short": "as §1"}, "ragweed [19]": {"test_system": "ragweed", "assay": "Test C postemergence", "type": "in vivo, Ambrosia artemisiifolia", "settings": "10 days, 0 to 100 scale (0 no effect, 100 complete control)", "in_short": "as §1"}, "ryegrass, Italian [20]": {"test_system": "ryegrass, Italian", "assay": "Test C postemergence", "type": "in vivo, Lolium multiflorum", "settings": "10 days, 0 to 100 scale (0 no effect, 100 complete control)", "in_short": "as §1"}, "soybean [21]": {"test_system": "soybean", "assay": "Test C postemergence", "type": "in vivo, Glycine max", "settings": "10 days, 0 to 100 scale (0 no effect, 100 complete control)", "in_short": "as §1"}, "wheat [22]": {"test_system": "wheat", "assay": "Test C postemergence", "type": "in vivo, Triticum aestivum", "settings": "10 days, 0 to 100 scale (0 no effect, 100 complete control)", "in_short": "as §1"}, "galium": {"test_system": "galium", "assay": "Test C postemergence", "type": "in vivo, Galium aparine", "settings": "10 days, 0 to 100 scale (0 no effect, 100 complete control)", "in_short": "as §1"}, "horseweed": {"test_system": "horseweed", "assay": "Test C postemergence", "type": "in vivo, Erigeron canadensis", "settings": "10 days, 0 to 100 scale (0 no effect, 100 complete control)", "in_short": "as §1"}, "barnyardgrass [23]": {"test_system": "barnyardgrass", "assay": "Test D flooded paddy test", "type": "in vivo, Echinochloa crus-galli", "settings": "250 g ai/ha, applied to paddy water, visual rating after 13 to 14 days, scale 0 to 100 (0 no effect, 100 complete control)", "in_short": "(§2)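 Compounds go straight into paddy water over 2-leaf plants in pots flooded to 3 cm. Greenhouse holding lasts 13 to 14 days. Injury is scored by eye against controls from 0 (none) to 100 (complete control).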"}, "ducksalad": {"test_system": "ducksalad", "assay": "Test D flooded paddy test", "type": "in vivo, Heteranthera limosa", "settings": "250 g ai/ha, applied to paddy water, visual rating after 13 to 14 days, scale 0 to 100 (0 no effect, 100 complete control)", "in_short": "as §2"}, "rice": {"test_system": "rice", "assay": "Test D flooded paddy test", "type": "in vivo, Oryza sativa", "settings": "250 g ai/ha, applied to paddy water, visual rating after 13 to 14 days, scale 0 to 100 (0 no effect, 100 complete control)", "in_short": "as §2"}, "sedge, umbrella": {"test_system": "sedge, umbrella", "assay": "Test D flooded paddy test", "type": "in vivo, Cyperus difformis", "settings": "250 g ai/ha, applied to paddy water, visual rating after 13 to 14 days, scale 0 to 100 (0 no effect, 100 complete control)", "in_short": "as §2"}, "[24]": {"settings": "500 g ai/ha, preemergence, 0 to 100 scale (0 no effect, 100 complete control)"}, "[25]": {"settings": "Preemergence, 125 g ai/ha, 0 to 100 scale, 0 no effect, 100 complete control"}}, "data": [{"smiles": "CC(C)c1ncn(-c2cc(C(=O)N3CC(C(F)(F)F)Oc4c(Cl)cccc43)ccn2)n1", "note": "(single isomer, unassigned) [Compound 330]", "values": [{"measurement": "Barnyardgrass plant response rating", "setting": "barnyardgrass [1]; [24]", "result": 100}, {"measurement": "Plant response rating, Barnyardgrass", "setting": "barnyardgrass [1]; [25]", "result": 70}, {"measurement": "Blackgrass plant response rating", "setting": "blackgrass [2]; [24]", "result": 90}, {"measurement": "Plant response rating, Blackgrass", "setting": "blackgrass [2]; [25]", "result": 70}, {"measurement": "Corn plant response rating", "setting": "corn [3]; [24]", "result": 60}, {"measurement": "Plant response rating, Corn", "setting": "corn [3]; [25]", "result": 10}, {"measurement": "Foxtail, Giant plant response rating", "setting": "foxtail, giant [4]; [24]", "result": 100}, {"measurement": "Plant response rating, Foxtail, Giant", "setting": "foxtail, giant [4]; [25]", "result": 100}, {"measurement": "Kochia plant response rating", "setting": "kochia [5]; [24]", "result": 90}, {"measurement": "Plant response rating, Kochia", "setting": "kochia [5]; [25]", "result": 30}, {"measurement": "Oat, Wild plant response rating", "setting": "oat, wild [6]; [24]", "result": 60}, {"measurement": "Plant response rating, Oat, Wild", "setting": "oat, wild [6]; [25]", "result": 30}, {"measurement": "Pigweed, Palmer plant response rating", "setting": "pigweed, palmer [7]; [24]", "result": 100}, {"measurement": "Plant response rating, Pigweed, Palmer", "setting": "pigweed, palmer [7]; [25]", "result": 100}, {"measurement": "Ragweed plant response rating", "setting": "ragweed [8]; [24]", "result": 50}, {"measurement": "Plant response rating, Ragweed", "setting": "ragweed [8]; [25]", "result": 0}, {"measurement": "Ryegrass, Italian plant response rating", "setting": "ryegrass, Italian [9]; [24]", "result": 100}, {"measurement": "Plant response rating, Ryegrass, Italian", "setting": "ryegrass, Italian [9]; [25]", "result": 100}, {"measurement": "Soybean plant response rating", "setting": "soybean [10]; [24]", "result": 80}, {"measurement": "Plant response rating, Soybean", "setting": "soybean [10]; [25]", "result": 40}, {"measurement": "Wheat plant response rating", "setting": "wheat [11]; [24]", "result": 30}, {"measurement": "Plant response rating, Wheat", "setting": "wheat [11]; [25]", "result": 20}, {"measurement": "Plant response rating, Barnyardgrass", "setting": "barnyardgrass [12]; 500 g ai/ha, postemergence", "result": 70}, {"measurement": "Plant response rating, Barnyardgrass", "setting": "barnyardgrass [12]; Postemergence, 125 g ai/ha", "result": 50}, {"measurement": "Plant response rating, Blackgrass", "setting": "blackgrass [13]; 500 g ai/ha, postemergence", "result": 90}, {"measurement": "Plant response rating, Blackgrass", "setting": "blackgrass [13]; Postemergence, 125 g ai/ha", "result": 40}, {"measurement": "Plant response rating, Corn", "setting": "corn [14]; 500 g ai/ha, postemergence", "result": 90}, {"measurement": "Plant response rating, Corn", "setting": "corn [14]; Postemergence, 125 g ai/ha", "result": 70}, {"measurement": "Plant response rating, Foxtail, Giant", "setting": "foxtail, giant [15]; 500 g ai/ha, postemergence", "result": 90}, {"measurement": "Plant response rating, Foxtail, Giant", "setting": "foxtail, giant [15]; Postemergence, 125 g ai/ha", "result": 50}, {"measurement": "Plant response rating, Kochia", "setting": "kochia [16]; 500 g ai/ha, postemergence", "result": 100}, {"measurement": "Plant response rating, Kochia", "setting": "kochia [16]; Postemergence, 125 g ai/ha", "result": 80}, {"measurement": "Plant response rating, Oat, Wild", "setting": "oat, wild [17]; 500 g ai/ha, postemergence", "result": 70}, {"measurement": "Plant response rating, Oat, Wild", "setting": "oat, wild [17]; Postemergence, 125 g ai/ha", "result": 30}, {"measurement": "Plant response rating, Pigweed, Palmer", "setting": "pigweed, palmer [18]; 500 g ai/ha, postemergence", "result": 100}, {"measurement": "Plant response rating, Pigweed, Palmer", "setting": "pigweed, palmer [18]; Postemergence, 125 g ai/ha", "result": 70}, {"measurement": "Plant response rating, Ragweed", "setting": "ragweed [19]; 500 g ai/ha, postemergence", "result": 40}, {"measurement": "Plant response rating, Ragweed", "setting": "ragweed [19]; Postemergence, 125 g ai/ha", "result": 30}, {"measurement": "Plant response rating, Ryegrass, Italian", "setting": "ryegrass, Italian [20]; 500 g ai/ha, postemergence", "result": 90}, {"measurement": "Plant response rating, Ryegrass, Italian", "setting": "ryegrass, Italian [20]; Postemergence, 125 g ai/ha", "result": 40}, {"measurement": "Plant response rating, Soybean", "setting": "soybean [21]; 500 g ai/ha, postemergence", "result": 100}, {"measurement": "Plant response rating, Soybean", "setting": "soybean [21]; Postemergence, 125 g ai/ha", "result": 100}, {"measurement": "Plant response rating, Wheat", "setting": "wheat [22]; 500 g ai/ha, postemergence", "result": 30}, {"measurement": "Plant response rating, Wheat", "setting": "wheat [22]; Postemergence, 125 g ai/ha", "result": 20}, {"measurement": "Plant response rating, Galium", "setting": "galium; 500 g ai/ha, postemergence", "result": 100}, {"measurement": "Plant response rating, Galium", "setting": "galium; Postemergence, 125 g ai/ha", "result": 100}, {"measurement": "Plant response rating, Horseweed", "setting": "horseweed; 500 g ai/ha, postemergence", "result": 20}, {"measurement": "Plant response rating, Horseweed", "setting": "horseweed; Postemergence, 125 g ai/ha", "result": 0}, {"measurement": "Plant response rating, Barnyardgrass (Flood)", "setting": "barnyardgrass [23]", "result": 0}, {"measurement": "Plant response rating, Ducksalad (Flood)", "setting": "ducksalad", "result": 0}, {"measurement": "Plant response rating, Rice (Flood)", "setting": "rice", "result": 0}, {"measurement": "Plant response rating, Sedge, Umbrella (Flood)", "setting": "sedge, umbrella", "result": 0}]}]}
